Results on two compounds are retold here after US12358896B2, “LRRK2 inhibitors and methods of making and using thereof” (DENALI THERAPEUTICS INC., priority 2019, dated 2025).

The nature of data set [1]: Metabolic stability in human liver microsomes (Biological Example 2). It is filed as in vitro ADME. The conditions noted are these: hepatic clearance (CLhep) scaled from human liver microsomes, 1 μM, well-stirred model. How it is done: Metabolic stability of select compounds was evaluated in human liver microsomes (from Corning or XenoTech, LLC) using a 96-well plate assay format. Compounds were incubated at 37° C. at 1 μM final concentration in the microsomal matrix (0.5 mg/mL total protein) in the presence or absence of NADPH cofactor. An NADPH regenerating system, comprised of NADP, MgCl2, isocitric acid, and isocitrate dehydrogenase, was used in the assay. Enzymatic reactions were conducted for 0, 5, 10, 20, 30, or 60 min before termination by addition of acetonitrile containing tolbutamide and labetalol internal standards (100 ng/mL). After shaking for 10 min, plates were subjected to centrifugation (4000 rpm at 4° C.) for 20 min and supernatants mixed 1:3 with HPLC grade water. Samples were analyzed by LC-MS/MS using appropriate MRM transitions for each analyte and internal standard (IS). Analyte/IS peak area ratios were used to determine percent compound remaining at each time point. Intrinsic clearance (Clint; expressed as mL·min^−1·mg^−1) was calculated from the first order elimination constant (k, min^−1) of test article decay and the volume of the incubation. These values were scaled to intrinsic organ clearance (Clint) using human specific scaling factors (48.8 mg microsomal protein per g liver; 25.7 g liver per kg body weight). Organ Clint was subsequently converted to hepatic clearance, HLM, (CLhep, mL·min-1·kg-1) using the well-stirred model of hepatic elimination, where Qh is human hepatic blood flow (20.7 mL·min-1·kg-1).
CLhep is the projected human clearance in the liver based on the above in vitro assay. A lower value is indicative of less compound being removed by the liver.

Data set [2] has as its target T1, FLAG-tagged human LRRK2 with G2019S mutation (Homo sapiens, UniProt Q5S007, G2019S).
T1 construct: expressed in transfected cells; host or cells: HEK293 / 293T cells, transient transfection with pCMV-FLAG-G2019S
Put plainly: Inhibition of pSer935 in HEK293 cells with expressed G2019S LRRK2 (Biological Example 4). Format: cell-based. The conditions noted are these: transfected 293T cells, 90 minutes compound treatment, MSD readout; read-out: HEK293T LRRK2 G2019S pS935. How it is done: In this assay, inhibition of phosphorylation of LRRK2 at residue serine 935 (pS935) by test compound was determined in HEK293 cells.
HEK293 cells were first transiently transfected with a plasmid harboring FLAG-tagged human LRRK2 cDNA with G2019S mutation (p.G2019S) under the control of CMV promoter for robust overexpression. The levels of phosphorylated Ser935 in G2019S expressing cells with or without compound treatment were measured by MSD using an anti-FLAG capture antibody and a phosho-specific anti-LRRK2 pS935 monoclonal detection antibody. The IC50 was determined by fitting a 10-point dose response data in duplicate with four parameter non-linear regression curve.
(Day 1) 293T cell seeding: 293T cells were seeded (1.4×10^6/well) into each well of a 6-well plate. After two days in culture, the cell number can grow into 5×10^6/well, so N+1 wells were seeded (enough for N 96 well assay plates).
(Day 2) 293T cell transfection: 5 μL of pCMV-FLAG-G2019S or pCMV-FLAG-WT LRRK2 (0.5 μg/μL) was added into 145 μL of DMEM medium, and mixed thoroughly by pipette up and down several times. 15 μL of SuperFect Transfection Reagent was added into samples, mixed thoroughly by pipetting up and down several times, and allowed to equilibrate at room temperature for 5-10 minutes. 0.5 mL of pre-warmed cell culture medium was added into samples, and mixed thoroughly by pipetting up and down several times. 650 μL of the mixture was added dropwise into each well of the 6 well plate, the plate was swirled to mix thoroughly, and incubated in a 37° C. incubator with a humidified atmosphere of 5% CO2 for 20-24 hours.
(Day 3) 293T cells seed into 96 well plates: Cells were harvested and resuspended in cell culture medium at 0.96×10^6 cells/mL density. 50 μL/well cells were plated onto 96-well cell culture plate (48,000 cells/well), and the plates were incubated in a 37° C. incubator with a humidified atmosphere of 5% CO2 for 20-24 hours.
(Day 4) Inhibitor Treatment and Cell Lysis: The compound destination plates were thawed at room temperature and centrifuged at 2000 rpm. 55 μL cell culture medium was added into compound destination plate, and the plate was warmed at 37° C.
50 μL of cell culture medium containing compounds was transferred into cell culture plate. Plates were incubated in a 37° C. incubator with a humidified atmosphere of 5% CO2 for 90 minutes, after which all of compound-containing medium was completely aspirated manually with 300 μL pipette. 100 μL/well of Lysis Buffer was added and the plates sealed, shaken at 4° C. for 30 minutes, and stored at −20° C. until usage.
(Day 5) MSD procedure: 2 μg/25 μL/well of FLAG antibody diluted in PBS was added into the MSD plate, incubated for two hours at room temperature or overnight at 4° C. (in Day 4). 50 μL (3.9 μg/μL) of FLAG antibody plus 2.5 mL PBS, per 96 well plate, or 50 μL (3.9 μg/μL) anti-FLAG antibody plus 5 mL PBS per 384 well plate. The plates were centrifuged at 1000 rpm for 10 seconds and shaken with a plate shaker for 10 seconds.
Anti-FLAG antibody was discarded, and the wells were washed using multidrop, low speed, two times with 300 μL/well of wash buffer for a 96 well plate or three times with 70 μL/well of wash buffer for a 384 well plate. 50 μL/well of block buffer for a 96 well plate, or 25 μL/well of block buffer for a 384 well plate, was added and the plates were incubated for two hours at room temperature. The Block buffer was then discarded and the wells washed two times using multidrop, low speed, with 300 μL/well of wash buffer for a 96 well plate, or three times with 70 μL/well of wash buffer for a 384 well plate.
25 μL of cell lysate was transferred into a 96 well MSD plate, or 12.5 μL of cell lysate into 384 well MSD plate, and the plates were incubated for one hour at room temperature.
Note: The cell lysate should be thawed one hour prior to this step, the plate centrifuged at 1000 rpm for one minute, shaken for 30 seconds, and then unsealed for lysate transfer. […]

Structures are written as SMILES. pIC50: −log10 of the molar value.

T1 sequence (Q5S007 whole entry G2019S): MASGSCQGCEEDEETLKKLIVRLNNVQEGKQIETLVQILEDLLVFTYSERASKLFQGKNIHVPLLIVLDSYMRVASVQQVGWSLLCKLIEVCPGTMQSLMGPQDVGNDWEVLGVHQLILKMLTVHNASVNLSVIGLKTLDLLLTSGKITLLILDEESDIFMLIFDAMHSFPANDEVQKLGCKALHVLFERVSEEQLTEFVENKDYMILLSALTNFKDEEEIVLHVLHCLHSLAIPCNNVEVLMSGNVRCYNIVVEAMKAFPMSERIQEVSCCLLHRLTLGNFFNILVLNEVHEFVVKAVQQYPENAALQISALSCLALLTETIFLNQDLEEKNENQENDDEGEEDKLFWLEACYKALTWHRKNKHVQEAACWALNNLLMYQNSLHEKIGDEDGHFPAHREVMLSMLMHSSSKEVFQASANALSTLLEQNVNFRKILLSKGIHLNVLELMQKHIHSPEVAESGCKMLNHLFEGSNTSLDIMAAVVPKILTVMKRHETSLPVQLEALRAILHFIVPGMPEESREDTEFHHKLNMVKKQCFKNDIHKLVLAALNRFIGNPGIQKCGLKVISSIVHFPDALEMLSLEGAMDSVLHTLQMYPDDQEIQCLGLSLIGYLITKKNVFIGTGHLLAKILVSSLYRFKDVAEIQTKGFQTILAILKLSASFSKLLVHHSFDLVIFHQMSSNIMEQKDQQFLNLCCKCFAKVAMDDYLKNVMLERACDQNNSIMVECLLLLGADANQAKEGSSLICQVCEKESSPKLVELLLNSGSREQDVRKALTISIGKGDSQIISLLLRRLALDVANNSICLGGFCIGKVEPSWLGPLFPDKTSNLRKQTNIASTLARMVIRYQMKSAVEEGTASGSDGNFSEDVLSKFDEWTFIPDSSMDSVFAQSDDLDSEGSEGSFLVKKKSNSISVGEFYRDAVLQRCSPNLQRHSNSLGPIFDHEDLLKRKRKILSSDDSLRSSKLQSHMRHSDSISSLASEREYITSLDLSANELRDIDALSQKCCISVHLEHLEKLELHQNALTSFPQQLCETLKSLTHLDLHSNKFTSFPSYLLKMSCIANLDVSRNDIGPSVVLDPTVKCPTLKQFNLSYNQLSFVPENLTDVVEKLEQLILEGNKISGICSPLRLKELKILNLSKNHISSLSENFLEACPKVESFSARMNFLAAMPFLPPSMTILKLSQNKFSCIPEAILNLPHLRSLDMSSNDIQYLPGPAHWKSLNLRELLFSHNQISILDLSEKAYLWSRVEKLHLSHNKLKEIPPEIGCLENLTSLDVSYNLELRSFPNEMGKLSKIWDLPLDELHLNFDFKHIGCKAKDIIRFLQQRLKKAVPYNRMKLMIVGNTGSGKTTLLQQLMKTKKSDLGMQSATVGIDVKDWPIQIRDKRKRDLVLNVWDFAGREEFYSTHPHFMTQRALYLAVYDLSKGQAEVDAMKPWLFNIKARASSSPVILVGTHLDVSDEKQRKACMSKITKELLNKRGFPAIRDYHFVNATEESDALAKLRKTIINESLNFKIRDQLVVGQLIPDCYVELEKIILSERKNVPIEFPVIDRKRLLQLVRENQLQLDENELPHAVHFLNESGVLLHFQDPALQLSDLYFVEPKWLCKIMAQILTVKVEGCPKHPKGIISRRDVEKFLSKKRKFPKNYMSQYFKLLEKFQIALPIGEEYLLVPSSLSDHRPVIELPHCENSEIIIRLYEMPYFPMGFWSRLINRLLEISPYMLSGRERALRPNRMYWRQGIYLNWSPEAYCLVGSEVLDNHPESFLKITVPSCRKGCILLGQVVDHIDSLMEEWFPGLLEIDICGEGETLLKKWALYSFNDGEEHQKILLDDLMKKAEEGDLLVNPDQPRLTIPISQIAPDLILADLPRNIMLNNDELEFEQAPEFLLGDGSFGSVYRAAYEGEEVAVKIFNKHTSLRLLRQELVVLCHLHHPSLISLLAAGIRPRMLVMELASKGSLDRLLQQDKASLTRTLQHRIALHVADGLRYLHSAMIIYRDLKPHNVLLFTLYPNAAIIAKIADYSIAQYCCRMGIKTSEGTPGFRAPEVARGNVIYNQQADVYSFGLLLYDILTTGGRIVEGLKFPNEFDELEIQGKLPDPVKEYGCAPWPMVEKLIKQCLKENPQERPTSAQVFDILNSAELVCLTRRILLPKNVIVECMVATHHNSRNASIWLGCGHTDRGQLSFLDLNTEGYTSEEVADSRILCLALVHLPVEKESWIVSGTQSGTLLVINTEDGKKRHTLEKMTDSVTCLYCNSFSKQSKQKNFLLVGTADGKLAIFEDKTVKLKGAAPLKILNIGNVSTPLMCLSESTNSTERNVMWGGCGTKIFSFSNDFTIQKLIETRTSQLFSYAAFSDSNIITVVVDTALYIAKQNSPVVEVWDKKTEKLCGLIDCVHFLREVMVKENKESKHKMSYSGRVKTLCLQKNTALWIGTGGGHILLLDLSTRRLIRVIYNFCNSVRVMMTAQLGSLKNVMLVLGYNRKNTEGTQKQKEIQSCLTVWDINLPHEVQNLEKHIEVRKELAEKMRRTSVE

On to `CCNc1nc(Nc2cn([C@H]3C[C@H]3C(N)=O)nc2C2CC2)ncc1C(F)(F)F` (single isomer, unassigned) [Example 7, (1,2-cis)-2-(3-cyclopropyl-4-((4-(ethylamino)-5-(trifluoromethyl)pyrimidin-2-yl)amino)-1H-pyrazol-1-yl)cyclopropanecarboxamide], for which, in data set [1], the “HLM Avg” value is reported as 3.6 mL/min/kg. The pIC50 in data set [2] is 8.74.
On to `CCNc1nc(Nc2cc([C@H]3C[C@H]3C(N)=O)nn2C2CC2)ncc1C(F)(F)F` [Comparative Example A, reference compound], for which, in data set [1], the “HLM Avg” value was 2.6 mL/min/kg. Further, the pIC50 in data set [2] is 7.93.
